Assay results reported in the supplement of paper PMC10307832.

Assays:
Experiment in all cases: relative viability (nuclei count vs DMSO), 5 days (fraction); higher = more cells survive
[1] = compound: O=C(O)C(Cc1ccccc1[N+](=O)[O-])=NNc1nc(-c2ccc(Cl)c(Cl)c2)cs1 (mixture of isomers) [4EGI-1] + CCNC(=O)c1noc(-c2cc(C(C)C)c(O)cc2O)c1-c1ccc(CN2CCOCC2)cc1 [Luminespib] (partner 0.01 µM)
Outline: (§1)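 Lung cancer cell lines were pin-tool dosed in 1536-well plates on the day after seeding, with either a lone drug or a fixed anchor-drug dose plus five library-drug doses (not always all listed) in √10 steps. Nuclei were counted on 4× images after 5 days. Relative viability is the ratio of treated-well to vehicle-well nuclei counts, with each value a median of duplicate plates.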

[2] = compound: O=C(O)C(Cc1ccccc1[N+](=O)[O-])=NNc1nc(-c2ccc(Cl)c(Cl)c2)cs1 (mixture of isomers) [4EGI-1] + CS(=O)(=O)N1CCN(Cc2cc3nc(-c4cccc5[nH]ncc45)nc(N4CCOCC4)c3s2)CC1 [Pictilisib] (partner 1 µM)
Outline: as §1

[3] = compound: CN1CCN(CC1)C2=CC(=C(C=C2)NC3=NC=C4C(=N3)N(C5=CC=CC=C5C(=O)N4C)C)OC [XMD8-85] + Cc1nc(NC(=O)N2CCC[C@H]2C(N)=O)sc1-c1ccnc(C(C)(C)C(F)(F)F)c1 [Alpelisib] (partner 2 µM)
Outline: as §1

[4] = compound: O=C(O)C(Cc1ccccc1[N+](=O)[O-])=NNc1nc(-c2ccc(Cl)c(Cl)c2)cs1 (mixture of isomers) [4EGI-1] + C[C@@H](Oc1cc(-c2cnn(C3CCNCC3)c2)cnc1N)c1c(Cl)ccc(F)c1Cl [Crizotinib] (partner 1 µM)
Outline: as §1

With NCI-H1792 the relative viability ([1]; first compound 0.5 µM) was 0.917, the relative viability ([1]; first compound 1.581 µM) was 0.414 and the relative viability ([1]; first compound 5 µM) was 0.411. It also gave a relative viability ([1]; first compound 15.81 µM) of 0.37, a relative viability ([1]; first compound 50 µM) of 0.236 and a relative viability ([2]; first compound 0.5 µM) of 0.321. It also gave a relative viability ([2]; first compound 1.581 µM) of 0.209, a relative viability ([2]; first compound 5 µM) of 0.257 and a relative viability ([2]; first compound 15.81 µM) of 0.214. It also gave a relative viability ([2]; first compound 50 µM) of 0.145, a relative viability ([3]; first compound 0.08 µM) of 0.627 and a relative viability ([3]; first compound 0.253 µM) of 0.642. For the same cell line, the relative viability ([3]; first compound 2.53 µM) was 0.562, the relative viability ([3]; first compound 8 µM) was 0.723 and the relative viability ([4]; first compound 0.5 µM) was 0.963. It also gave a relative viability ([4]; first compound 1.581 µM) of 0.772, a relative viability ([4]; first compound 5 µM) of 0.963 and a relative viability ([4]; first compound 15.81 µM) of 0.842. The relative viability ([4]; first compound 50 µM) was 0.823.
